{"source": "patent US20050112573A1", "about": "“Method of detecting toxic substance” (priority 2001, published 2005)", "tested_on": "yeast genes (level of expressed mRNA)", "assay": "DNA chip analysis of expressed mRNA of yeast genes after 2 h culture with a toxic chemical substance", "assay_type": "cell-based, Saccharomyces cerevisiae S288C", "conditions": "for The level of expressed mRNA in the presence of chemical substance/ (ratio to absence of chemical substance): stress protein genes, DNA chip", "method_in_brief": "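S. cerevisiae S288C in YPD at 25 °C was exposed at log phase for 2 h to a growth-inhibiting, non-lethal concentration of the chemical. Poly(A) mRNA was reverse-transcribed with Cy3- or Cy5-dUTP and hybridized to a whole-genome yeast DNA chip (65 °C, >12 h). Values are fluorescence ratios versus untreated cells.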", "data": [{"smiles": "C[S+](C)[O-]", "note": "[(15), dimethylsulfoxide]", "values": [{"measurement": "The level of expressed mRNA in the presence of chemical substance/absence: YOR267C", "setting": "gene YOR267C", "result": 1.3}, {"measurement": "The level of expressed mRNA in the presence of chemical substance/absence: YOR325W", "setting": "gene YOR325W", "result": 0.7}, {"measurement": "level of expressed mRNA in the presence of chemical substance/in its absence", "setting": "gene YOR336W", "result": 0.6}, {"measurement": "level of expressed mRNA in the presence of chemical substance/in its absence", "setting": "gene YOR344C", "result": 0.7}, {"measurement": "level of expressed mRNA in the presence of chemical substance/in its absence", "setting": "gene YOR347C", "result": 2.0}, {"measurement": "The level of expressed mRNA in the presence of chemical substance/absence: YPL005W", "setting": "gene YPL005W", "result": 1.2}, {"measurement": "level of expressed mRNA in the presence of chemical substance/in its absence", "setting": "gene YPL017C", "result": 1.0}, {"measurement": "The level of expressed mRNA in the presence of chemical substance / the level in the absence of chemical substance, yeast gene YPL107W", "setting": "gene YPL107W, DNA chip fluorescence ratio to control without chemical, 2 hours culture with chemical, growth-inhibiting non-lethal concentration", "result": 0.7}, {"measurement": "The level of expressed mRNA in the presence of chemical substance / the level in the absence of chemical substance, yeast gene YPL138C", "setting": "gene YPL138C, DNA chip fluorescence ratio to control without chemical, 2 hours culture with chemical, growth-inhibiting non-lethal concentration", "result": 2.7}, {"measurement": "The level of expressed mRNA in the presence of chemical substance/absence: YPL150W", "setting": "gene YPL150W", "result": 1.1}, {"measurement": "The level of expressed mRNA in the presence of chemical substance/absence: YPL151C", "setting": "gene YPL151C", "result": 1.8}, {"measurement": "The level of expressed mRNA in the presence of chemical substance/absence: YPL152W", "setting": "gene YPL152W", "result": 2.3}, {"measurement": "The level of expressed mRNA in the presence of chemical substance/absence: YPL168W", "setting": "gene YPL168W", "result": 0.8}, {"measurement": "The level of expressed mRNA in the presence of chemical substance/absence: YPL180W", "setting": "gene YPL180W", "result": 0.7}, {"measurement": "The level of expressed mRNA in the presence of chemical substance/absence: YPL188W", "setting": "gene YPL188W", "result": 0.8}, {"measurement": "The level of expressed mRNA in the presence of chemical substance/absence: YPL221W", "setting": "gene YPL221W", "result": 1.0}, {"measurement": "The level of expressed mRNA in the presence of chemical substance/absence: YPL225W", "setting": "gene YPL225W", "result": 0.9}, {"measurement": "The level of expressed mRNA in the presence of chemical substance/absence: YPL249C", "setting": "gene YPL249C", "result": 1.0}, {"measurement": "The level of expressed mRNA in the presence of chemical substance/absence: YPL260W", "setting": "gene YPL260W", "result": 1.3}, {"measurement": "level of expressed mRNA in the presence of chemical substance/in its absence", "setting": "gene YPL265W", "result": 1.2}, {"measurement": "level of expressed mRNA in the presence of chemical substance/in its absence", "setting": "gene YPR006C", "result": 0.7}, {"measurement": "level of expressed mRNA in the presence of chemical substance/in its absence", "setting": "gene YPR026W", "result": 3.1}, {"measurement": "The level of expressed mRNA in the presence of chemical substance/absence: YPR049C", "setting": "gene YPR049C", "result": 1.5}, {"measurement": "The level of expressed mRNA in the presence of chemical substance/absence: YPR061C", "setting": "gene YPR061C", "result": 0.4}, {"measurement": "The level of expressed mRNA in the presence of chemical substance/absence: YPR093C", "setting": "gene YPR093C", "result": 0.8}, {"measurement": "The level of expressed mRNA in the presence of chemical substance/absence: YPR146C", "setting": "gene YPR146C", "result": 0.9}, {"measurement": "The level of expressed mRNA in the presence of chemical substance/absence: YPR148C", "setting": "gene YPR148C", "result": 1.7}, {"measurement": "The level of expressed mRNA in the presence of chemical substance/absence: YPR150W", "setting": "gene YPR150W", "result": 0.9}, {"measurement": "The level of expressed mRNA in the presence of chemical substance/absence: YPR158W", "setting": "gene YPR158W", "result": 0.9}, {"measurement": "The level of expressed mRNA in the presence of chemical substance/absence: YPR169W", "setting": "gene YPR169W", "result": 0.9}, {"measurement": "The level of expressed mRNA in the presence of chemical substance/absence: YPR172W", "setting": "gene YPR172W", "result": 1.5}, {"measurement": "The level of expressed mRNA in the presence of chemical substance/absence: YPR174C", "setting": "gene YPR174C", "result": 1.2}, {"measurement": "The level of expressed mRNA in the presence of chemical substance/The level of expressed mRNA in the absence of chemical substance", "setting": "yeast gene YAR010C", "result": 1.8}, {"measurement": "The level of expressed mRNA in the presence of chemical substance/The level of expressed mRNA in the absence of chemical substance", "setting": "yeast gene YBL005W-A", "result": 0.9}, {"measurement": "The level of expressed mRNA in the presence of chemical substance/ (ratio to absence), gene YBL038W", "setting": "yeast gene YBL038W, mitochondria-located protein genes, 2 h culture with chemical", "result": 0.7}, {"measurement": "The level of expressed mRNA in the presence of chemical substance/The level of expressed mRNA in the absence of chemical substance", "setting": "yeast gene YBL041W", "result": 1.3}, {"measurement": "The level of expressed mRNA in the presence of chemical substance/The level of expressed mRNA in the absence of chemical substance", "setting": "yeast gene YBL043W", "result": 1.8}, {"measurement": "The level of expressed mRNA in the presence of chemical substance/The level of expressed mRNA in the absence of chemical substance", "setting": "yeast gene YBL078C", "result": 2.5}, {"measurement": "The level of expressed mRNA in the presence of chemical substance/ (ratio to absence of chemical substance)", "setting": "yeast gene YBL093C", "result": 0.5}, {"measurement": "The level of expressed mRNA in the presence of chemical substance/ (in its absence), gene YBR036C", "setting": "yeast gene YBR036C, ratio of DNA chip fluorescence intensity to that without chemical substance", "result": 1.5}, {"measurement": "The level of expressed mRNA in the presence of chemical substance/ (ratio to absence of chemical substance)", "setting": "yeast gene YBR044C", "result": 0.9}, {"measurement": "The level of expressed mRNA in the presence of chemical substance/ (ratio to absence), gene YBR122C", "setting": "yeast gene YBR122C, mitochondria-located protein genes, 2 h culture with chemical", "result": 0.7}, {"measurement": "The level of expressed mRNA in the presence of chemical substance/The level of expressed mRNA in the absence of chemical substance", "setting": "yeast gene YBR214W", "result": 5.1}, {"measurement": "The level of expressed mRNA in the presence of chemical substance/ (ratio to absence), gene YBR251W", "setting": "yeast gene YBR251W, mitochondria-located protein genes, 2 h culture with chemical", "result": 0.8}, {"measurement": "The level of expressed mRNA in the presence of chemical substance/ (in its absence), gene YBR298C", "setting": "yeast gene YBR298C, ratio of DNA chip fluorescence intensity to that without chemical substance", "result": 0.2}, {"measurement": "The level of expressed mRNA in the presence of chemical substance/The level of expressed mRNA in the absence of chemical substance", "setting": "yeast gene YCL020W", "result": 2.5}, {"measurement": "The level of expressed mRNA in the presence of chemical substance/The level of expressed mRNA in the absence of chemical substance", "setting": "yeast gene YCL027W", "result": 3.6}, {"measurement": "The level of expressed mRNA in the presence of chemical substance/The level of expressed mRNA in the absence of chemical substance", "setting": "yeast gene YCR004C", "result": 0.8}, {"measurement": "The level of expressed mRNA in the presence of chemical substance/ (ratio to absence), gene YCR046C", "setting": "yeast gene YCR046C, mitochondria-located protein genes, 2 h culture with chemical", "result": 1.4}, {"measurement": "The level of expressed mRNA in the presence of chemical substance/The level of expressed mRNA in the absence of chemical substance", "setting": "yeast gene YCR071C", "result": 1.1}, {"measurement": "The level of expressed mRNA in the presence of chemical substance/ (ratio to absence), gene YCR083W", "setting": "yeast gene YCR083W, mitochondria-located protein genes, 2 h culture with chemical", "result": 1.0}, {"measurement": "The level of expressed mRNA in the presence of chemical substance/ (ratio to absence of chemical substance)", "setting": "yeast gene YCR083W", "result": 1.0}, {"measurement": "The level of expressed mRNA in the presence of chemical substance/The level of expressed mRNA in the absence of chemical substance", "setting": "yeast gene YCR088W", "result": 2.8}, {"measurement": "The level of expressed mRNA in the presence of chemical substance/The level of expressed mRNA in the absence of chemical substance", "setting": "yeast gene YDL008W", "result": 0.7}, {"measurement": "The level of expressed mRNA in the presence of chemical substance/ in its absence, gene YDL067C", "setting": "yeast gene YDL067C, energy system protein genes, 2 h culture with the chemical, ratio to control without chemical", "result": 0.7}, {"measurement": "The level of expressed mRNA in the presence of chemical substance/ (ratio to absence), gene YDL067C", "setting": "yeast gene YDL067C, mitochondria-located protein genes, 2 h culture with chemical", "result": 0.7}, {"measurement": "The level of expressed mRNA in the presence of chemical substance/ in its absence, gene YDL078C", "setting": "yeast gene YDL078C, energy system protein genes, 2 h culture with the chemical, ratio to control without chemical", "result": 0.5}]}]}
